In one test the target is T1, CPT II WT (Homo sapiens, UniProt P23786).
T1 construct: made in house; host or cells: Escherichia coli BL21Gold DE
T1 sequence (P23786 26-658): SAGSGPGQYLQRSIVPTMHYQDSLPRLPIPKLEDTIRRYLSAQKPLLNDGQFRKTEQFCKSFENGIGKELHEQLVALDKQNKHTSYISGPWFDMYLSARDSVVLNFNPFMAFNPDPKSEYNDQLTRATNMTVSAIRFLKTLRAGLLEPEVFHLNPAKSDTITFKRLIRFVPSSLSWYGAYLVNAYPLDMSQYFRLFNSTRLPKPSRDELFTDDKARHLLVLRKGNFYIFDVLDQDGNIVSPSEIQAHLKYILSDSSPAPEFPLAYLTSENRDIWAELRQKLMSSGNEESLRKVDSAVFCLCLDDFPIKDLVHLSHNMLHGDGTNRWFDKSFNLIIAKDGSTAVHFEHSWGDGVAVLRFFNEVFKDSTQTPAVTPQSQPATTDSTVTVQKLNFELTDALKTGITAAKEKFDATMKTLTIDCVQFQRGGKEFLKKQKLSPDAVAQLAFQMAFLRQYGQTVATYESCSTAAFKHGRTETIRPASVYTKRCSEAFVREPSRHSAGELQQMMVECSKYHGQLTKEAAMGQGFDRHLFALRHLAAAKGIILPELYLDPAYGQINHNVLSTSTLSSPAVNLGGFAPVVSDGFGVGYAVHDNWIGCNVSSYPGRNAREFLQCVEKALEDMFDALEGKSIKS
The experiment in a line: nanoDSF protein stability in presence of CL or β-OG. Type of test: binding. On the procedure:
(§1) NanoDSF is a standard method for the investigation of the folding/unfolding of proteins and the interaction of proteins with effectors/ligands/substrates
(§2) The protein stability was investigated applying nano differential scanning fluorimetry (nanoDSF) using a protein concentration of 1 mg/mL in assay buffer. […] The heating rate has been set to 1 °C per min. A heating ramp from 15 to 95 °C was determined. The nanoDSF data were obtained using a Prometheus NT.48 device. First derivatives were calculated using PR.ThermControl software (NanoTemper Technologies GmbH, Munich, Germany). Experiments were performed at least three times independently as double determination.

For the next test, the target named is T2, CPT II variant P50H (Homo sapiens, UniProt P23786, P50H).
T2 construct: made in house; host or cells: Escherichia coli BL21Gold DE
T2 sequence (P23786 26-658 P50H): T1 sequence (P23786 26-658) with P25H
Described as above. Type of test: binding. Here is the method: as §1, §2

The target of the next test is T3, CPT II variant S113L (Homo sapiens, UniProt P23786, S113L).
T3 construct: made in house; host or cells: Escherichia coli BL21Gold DE
T3 sequence (P23786 26-658 S113L): T1 sequence (P23786 26-658) with S88L
The description is as above. It is filed as binding. Here is the method: as §1, §2

For the next test, the target named is T4, CPT II variant Y479F (Homo sapiens, UniProt P23786, Y479F).
T4 construct: made in house; host or cells: Escherichia coli BL21Gold DE
T4 sequence (P23786 26-658 Y479F): T1 sequence (P23786 26-658) with Y454F
The test is described as above. It is filed as binding. On the procedure:
as §1, §2

For test [1], the system named is recombinant human CPT II WT. Details: method as in PMID 13534673. The conditions noted are these: cited from earlier work.
The mark [2] stands for this setting: reference TM of WT in buffer (ΔTM = 0 °C).

Changes are numbered by the printed parent chain.

Turning to Cardiolipin [CL], the “Increase of ΔTM-value due to the addition of CL” value on CPT II WT (0.25 mM CL) was “+10 °C”; on CPT II variant P50H (0.25 mM CL) it was “+13 °C”; at CPT II variant S113L (0.25 mM CL) it was “+10 °C”; at CPT II variant Y479F (0.25 mM CL), “+10 °C”. In addition, the “TM in Buffer with 0.25 mM CL” value at CPT II WT (1 mg/mL protein) was 47.6 °C; at CPT II variant P50H (1 mg/mL protein), 40.2 ± 0.7 °C; on CPT II variant Y479F (1 mg/mL protein) it was 45.9 ± 1.0 °C. In addition, the “∆TM in Buffer with 0.25 mM CL” value on CPT II WT (setting [2]) turned out to be 10.6 °C; on CPT II variant P50H (setting [2]), 3.3 ± 0.1 °C; at CPT II variant S113L (setting [2]), 6.5 ± 0.2 °C; on CPT II variant Y479F (setting [2]) it was 9.0 ± 0.1 °C. In test [1], the “Effect of CL on enzyme activity” value is reported as “activity-increasing effect”.

Source of the values: PMC8125234, “Cardiolipin Stabilizes and Increases Catalytic Efficiency of Carnitine Palmitoyltransferase II and Its Variants S113L, P50H, and Y479F” (International Journal of Molecular Sciences, 2021).
